Laboratory results as given in patent publication US20240043386A1, “Modulators of the Cystic Fibrosis Transmembrane Conductance Regulator Protein and Methods of Use” (AbbVie Global Enterprises Ltd., priority 2021, published 2024).
Like-named read-outs stand apart in the source and are kept apart here.

What was measured:
F508del/F508del CFTR = target: T1, F508del/F508del CFTR (Homo sapiens, UniProt P13569, DEL508-508); assay: Trans-Epithelial Current Clamp (TECC) assay using primary human bronchial epithelial cells; format: cell-based; settings: for Emax (% Dual): maximum percent activity relative to positive control (co-corrector 0.15 μM + potentiator 0.45 μM = 100%), primary hBE cells F508del/F508del; for EC50: primary hBE cells homozygous F508del/F508del, test C2 corrector with co-corrector and potentiator, 18-24 hours at 37° C., equivalent CFTR current (IEQ)/AUC
T1 construct: cells isolated from CF patients with the homozygous mutation; endogenous in cells; host or cells: primary human bronchial epithelial (hBE) cells from CF patients homozygous for F508del
Outline: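 F508del/F508del primary hBE cells grown 35 days at air-liquid interface were treated basolaterally with C2 correctors plus fixed co-corrector and potentiator for 18-24 h at 37° C. TECC-24 current clamp at 36.5° C in HEPES-buffered F-12 Coon's, pH 7.4; equivalent current IEQ=VT/RT, plus AUC between forskolin peak and bumetanide.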

F508delCFTR = target: T2, F508delCFTR (Homo sapiens, UniProt P13569, DEL508-508); assay: Cell Surface Expression-Horse Radish Peroxidase (CSE-HRP) assay in CFBE41o-F508delCFTR-HRP cells; format: cell-based; settings: for EC50: CFBE41o-F508delCFTR-HRP cells, 18-24 hours at 33° C., luminescence; for Maximum % activity (without co-corrector) / Maximum % activity (with co-corrector): normalized to on-plate positive control corrector (2 μM)
T2 construct: expressed in transfected cells; host or cells: CFBE41o- human lung-derived epithelial cell line, doxycycline-inducible expression
Outline: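 CFBE41o- cells expressing F508delCFTR with HRP in the fourth exofacial loop were doxycycline-induced (0.5 μg/mL) for 68–72 h, then exposed to correctors for 18–24 h at 33 °C, with or without 2 μM co-corrector. Surface HRP was read by luminol luminescence, and % activity was normalized to the on-plate positive control; EC50 came from a variable-slope sigmoidal fit (8 points, 3-fold dilution, 20 or 30 μM top).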

[1] = with co-corrector (2 μM), read-out: EC50 (with co-corrector)
[2] = without co-corrector, read-out: EC50 (without co-corrector)

T1 sequence (P13569 with tags, fused parts or gaps DEL508-508): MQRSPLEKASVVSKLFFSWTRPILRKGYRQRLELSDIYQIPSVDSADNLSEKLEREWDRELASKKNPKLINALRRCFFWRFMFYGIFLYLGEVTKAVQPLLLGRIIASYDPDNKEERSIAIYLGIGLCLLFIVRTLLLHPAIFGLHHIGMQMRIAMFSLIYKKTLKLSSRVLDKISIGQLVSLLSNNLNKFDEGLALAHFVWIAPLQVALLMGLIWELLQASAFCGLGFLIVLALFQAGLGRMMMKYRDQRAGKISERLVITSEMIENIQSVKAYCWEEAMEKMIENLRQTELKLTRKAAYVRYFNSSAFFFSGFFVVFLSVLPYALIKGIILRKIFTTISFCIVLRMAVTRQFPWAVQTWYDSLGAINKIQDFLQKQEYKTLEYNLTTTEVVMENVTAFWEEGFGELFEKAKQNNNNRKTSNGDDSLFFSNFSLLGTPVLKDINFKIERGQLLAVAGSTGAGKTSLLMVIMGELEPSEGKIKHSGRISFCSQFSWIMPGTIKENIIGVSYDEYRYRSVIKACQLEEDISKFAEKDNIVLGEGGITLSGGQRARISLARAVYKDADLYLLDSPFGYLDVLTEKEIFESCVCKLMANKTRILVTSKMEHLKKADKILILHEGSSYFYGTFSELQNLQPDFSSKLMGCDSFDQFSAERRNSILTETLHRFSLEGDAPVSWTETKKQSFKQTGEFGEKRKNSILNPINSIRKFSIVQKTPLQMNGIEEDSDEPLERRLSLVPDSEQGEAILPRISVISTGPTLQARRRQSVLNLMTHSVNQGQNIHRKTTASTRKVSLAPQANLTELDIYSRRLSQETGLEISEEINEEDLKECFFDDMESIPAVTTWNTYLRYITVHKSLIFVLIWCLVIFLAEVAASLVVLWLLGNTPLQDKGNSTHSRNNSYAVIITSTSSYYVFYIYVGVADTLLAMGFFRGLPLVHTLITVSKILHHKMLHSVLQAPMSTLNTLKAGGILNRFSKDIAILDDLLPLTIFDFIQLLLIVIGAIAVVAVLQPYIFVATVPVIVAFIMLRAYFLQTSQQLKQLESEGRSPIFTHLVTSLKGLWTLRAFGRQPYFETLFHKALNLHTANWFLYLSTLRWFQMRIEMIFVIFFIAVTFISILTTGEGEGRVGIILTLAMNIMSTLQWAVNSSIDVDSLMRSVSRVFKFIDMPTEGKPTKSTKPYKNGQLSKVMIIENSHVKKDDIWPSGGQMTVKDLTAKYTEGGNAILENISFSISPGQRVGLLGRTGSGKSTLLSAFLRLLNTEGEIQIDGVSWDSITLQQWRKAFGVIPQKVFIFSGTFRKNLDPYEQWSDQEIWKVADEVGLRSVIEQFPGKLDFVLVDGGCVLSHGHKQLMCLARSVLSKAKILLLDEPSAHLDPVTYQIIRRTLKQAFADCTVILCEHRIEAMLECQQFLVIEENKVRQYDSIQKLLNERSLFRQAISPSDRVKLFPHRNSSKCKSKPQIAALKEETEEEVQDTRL
T2 sequence (P13569 with tags, fused parts or gaps DEL508-508): as above

Emax (% Dual) (F508del/F508del CFTR)	EC50 (F508del/F508del CFTR) [nM]	EC50 (F508delCFTR; [1]) [nM]	EC50 (F508delCFTR; [2]) [nM]	Maximum % activity (without co-corrector) (F508delCFTR; without co-corrector) [%]	Maximum % activity (with co-corrector) (F508delCFTR; with co-corrector (2 μM)) [%]	Structure (SMILES)
217	21.1	1120	2760	657	–	COc1ccc(C)cc1[C@]1(C(=O)NS(=O)(=O)c2cccc3nc(C)ccc23)C[C@@H]1c1ccc(N(C)C)nc1 [Example 68, (1S,2R)-2-[6-(dimethylamino)pyridin-3-yl]-1-(2-methoxy-5-methylphenyl)-N-(2-methylquinoline-5-sulfonyl)cyclopropane-1-carboxamide]
111	> 300	3430	6010	170	495	COc1ccc(C)cc1[C@]1(C(=O)NS(=O)(=O)c2cccc3nc(C)ccc23)C[C@@H]1c1ccc(C(C)C)nn1 [Example 69, (1S,2S)-1-(2-methoxy-5-methylphenyl)-N-(2-methylquinoline-5-sulfonyl)-2-[6-(propan-2-yl)pyridazin-3-yl]cyclopropane-1-carboxamide]
291	11.8	2600	4230	482	–	COc1ccc(C)cc1[C@]1(C(=O)NS(=O)(=O)c2cccc3nc(C)ccc23)C[C@@H]1c1ccc(C(F)F)nc1 [Example 70, (1S,2R)-2-[6-(difluoromethyl)pyridin-3-yl]-1-(2-methoxy-5-methylphenyl)-N-(2-methylquinoline-5-sulfonyl)cyclopropane-1-carboxamide]
359	13.6	1540	3330	651	–	COc1ccc([C@H]2C[C@@]2(C(=O)NS(=O)(=O)c2cccc3nc(C)ccc23)c2cc(C)ccc2OC)c(C)n1 [Example 72, (1S,2R)-1-(2-methoxy-5-methylphenyl)-2-(6-methoxy-2-methylpyridin-3-yl)-N-(2-methylquinoline-5-sulfonyl)cyclopropane-1-carboxamide]
269	2.4	989	2140	–	–	COc1ccc(C)cc1[C@]1(C(=O)NS(=O)(=O)c2cccc3nc(C)ccc23)C[C@@H]1c1cnc(OC)c(F)c1 [Example 76, (1S,2R)-2-(5-fluoro-6-methoxypyridin-3-yl)-1-(2-methoxy-5-methylphenyl)-N-(2-methylquinoline-5-sulfonyl)cyclopropane-1-carboxamide]
289	0.4	327	1660	–	–	COc1ccc(C)cc1[C@]1(C(=O)NS(=O)(=O)c2cccc3nc(C)ccc23)C[C@@H]1c1cccc(C(F)F)n1 [Example 77, (1S,2S)-2-[6-(difluoromethyl)pyridin-2-yl]-1-(2-methoxy-5-methylphenyl)-N-(2-methylquinoline-5-sulfonyl)cyclopropane-1-carboxamide]
275	15.8	461	1320	925	–	COc1ccc(C)cc1[C@]1(C(=O)NS(=O)(=O)c2cccc3nc(C)ccc23)C[C@@H]1c1cnc(OC)c(OC)n1 [Example 80, (1S,2S)-2-(5,6-dimethoxypyrazin-2-yl)-1-(2-methoxy-5-methylphenyl)-N-(2-methylquinoline-5-sulfonyl)cyclopropane-1-carboxamide]
173	94.4	3980	5780	476	876	COc1ccc(C)cc1[C@]1(C(=O)NS(=O)(=O)c2cccc3nc(C)ccc23)C[C@@H]1c1ccc(C)nc1C [Example 81, (1S,2R)-2-(2,6-dimethylpyridin-3-yl)-1-(2-methoxy-5-methylphenyl)-N-(2-methylquinoline-5-sulfonyl)cyclopropane-1-carboxamide]
210	52.2	351	730	937	–	COc1cnc([C@H]2C[C@@]2(C(=O)NS(=O)(=O)c2cccc3nc(C)ccc23)c2cc(C)ccc2OC)c(OC)n1 [Example 82, (1S,2S)-2-(3,5-dimethoxypyrazin-2-yl)-1-(2-methoxy-5-methylphenyl)-N-(2-methylquinoline-5-sulfonyl)cyclopropane-1-carboxamide]
215	17.5	945	1360	–	–	COc1ccc(C)cc1[C@]1(C(=O)NS(=O)(=O)c2cccc3nc(C)ccc23)C[C@@H]1c1cc(F)cnc1OC [Example 84, (1S,2R)-2-(5-fluoro-2-methoxypyridin-3-yl)-1-(2-methoxy-5-methylphenyl)-N-(2-methylquinoline-5-sulfonyl)cyclopropane-1-carboxamide]
348	40.4	900	1720	812	–	COCc1cccc([C@H]2C[C@@]2(C(=O)NS(=O)(=O)c2cccc3nc(C)ccc23)c2cc(C)ccc2OC)n1 [Example 90, (1S,2S)-1-(2-methoxy-5-methylphenyl)-2-[6-(methoxymethyl)pyridin-2-yl]-N-(2-methylquinoline-5-sulfonyl)cyclopropane-1-carboxamide]
256	7.8	990	1980	–	–	COc1ccc(C)cc1[C@]1(C(=O)NS(=O)(=O)c2cccc3nc(C)ccc23)C[C@@H]1c1cccc(C)n1 [Example 96, (1S,2S)-1-(2-methoxy-5-methylphenyl)-2-(6-methylpyridin-2-yl)-N-(2-methylquinoline-5-sulfonyl)cyclopropane-1-carboxamide]
198	0.9	359	988	–	–	COc1ccc(C)cc1[C@]1(C(=O)NS(=O)(=O)c2cccc3nc(C)ccc23)C[C@@H]1c1cccc(OC(C)C)n1 [Example 97, (1S,2S)-1-(2-methoxy-5-methylphenyl)-N-(2-methylquinoline-5-sulfonyl)-2-{6-[(propan-2-yl)oxy]pyridin-2-yl}cyclopropane-1-carboxamide]
397	32.7	825	2300	–	–	COc1ccc(C)cc1[C@]1(C(=O)NS(=O)(=O)c2cccc3nc(C)ccc23)C[C@@H]1c1cnc(OC)c(Cl)c1 [Example 102, (1S,2R)-2-(5-chloro-6-methoxypyridin-3-yl)-1-(2-methoxy-5-methylphenyl)-N-(2-methylquinoline-5-sulfonyl)cyclopropane-1-carboxamide]
266	1.8	587	714	800	–	COc1ccc(C)cc1[C@]1(C(=O)NS(=O)(=O)c2cccc3nc(C)ccc23)C[C@@H]1c1cnc(OC)c(C)c1 [Example 103, (1S,2R)-1-(2-methoxy-5-methylphenyl)-2-(6-methoxy-5-methylpyridin-3-yl)-N-(2-methylquinoline-5-sulfonyl)cyclopropane-1-carboxamide]
